We go through 5 compounds from patent US11955208B2, “Computational systems and methods for improving the accuracy of drug toxicity predictions” (Cornell University, priority 2016, dated 2024).

One series deals with breast cancer patients. To be noted: recent clinical trials; cited from earlier work.
Series [1] concerns D1-like (DRD1/5) subfamily of dopamine receptors. The experiment in a line: GPCR profiling, heterologous reporter assay for arrestin recruitment. The series is classed as cell-based. On the procedure: (§1) To test the target prediction, in vitro profiling of GPCR activity using a hetereologous reporter assay for arrestin recruitment, a hallmark of GPCR activation was performed.
(In a reporter assay the amount or activity of a reporter protein is the signal.)

The next series has as its system other GPCRs. Described as above. Particulars: under the evaluated conditions. The series is classed as cell-based. As for the experimental part: as §1
For series [2], the target named is T1, DRD2L (Homo sapiens, UniProt P14416). Briefly: antagonism of arrestin recruitment to DRD2L, Gaddam/Schild EC50 shift analysis. The series is classed as cell-based. Also noted: expressed in transfected cells. To be noted: dopamine completely reversed dose-dependent antagonism of up to 100 uM ONC201. As for the experimental part: as §1
T1 sequence (P14416 whole entry): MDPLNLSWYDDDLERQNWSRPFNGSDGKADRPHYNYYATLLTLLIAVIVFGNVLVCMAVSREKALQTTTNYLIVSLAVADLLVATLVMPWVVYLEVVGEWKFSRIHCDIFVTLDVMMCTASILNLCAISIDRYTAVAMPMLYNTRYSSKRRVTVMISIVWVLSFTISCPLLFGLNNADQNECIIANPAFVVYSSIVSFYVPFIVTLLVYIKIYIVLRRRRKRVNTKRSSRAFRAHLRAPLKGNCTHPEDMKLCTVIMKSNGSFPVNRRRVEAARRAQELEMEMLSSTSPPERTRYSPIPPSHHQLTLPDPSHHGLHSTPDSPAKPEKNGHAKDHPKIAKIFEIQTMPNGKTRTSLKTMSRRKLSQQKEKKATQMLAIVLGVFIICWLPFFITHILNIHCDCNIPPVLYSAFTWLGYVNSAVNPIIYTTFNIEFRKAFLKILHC
Series [3] relates to nuclear hormone receptors, the kinome, or other drug targets of FDA-approved cancer therapies.
Series [4] addresses T1, DRD2L.
The subject of series [5] is short and long isoforms of DRD2. To be noted: arrestin recruitment. As for the experimental part:
as §1
Background: Arrestin recruitment assays detect the binding of arrestin to an activated receptor.

For series [6], the system named is D2-like (DRD2/3/4) subfamily of dopamine receptors. To be noted: arrestin recruitment. On the procedure: as §1
For series [7] the following is noted: in vivo; cited from earlier work.

Some results are limits rather than exact numbers.

For the compound `C=C1C[C@@H]2CC[C@@]34C[C@H]5O[C@H]6[C@@H](O3)[C@H]3O[C@H](CC[C@@H]3O[C@H]6[C@H]5O4)CC(=O)C[C@@H]3[C@@H](OC)[C@@H](C[C@H](O)CN)O[C@H]3C[C@H]3O[C@@H](CC[C@@H]1O2)C[C@@H](C)C3=C` [Eribulin], in the series on breast cancer patients, the “breast cancer patients showing any detectable response after treatment” value was less than 50%.
For the compound `Cc1ccccc1CN1C(=O)C2=C(CCN(Cc3ccccc3)C2)N2CCN=C12` [ONC201], the “antagonism of D1-like dopamine receptors” value in series [1] is on record as “not D1-like”. In addition, the “antagonism of other GPCRs” value with other GPCRs is “no observed antagonism”. For the same compound, the “mode of antagonism of DRD2L” value on DRD2L [2] was “direct, competitive antagonism”. Also, the “interactions with nuclear hormone receptors, kinome, other cancer drug targets” value in [3] is “no significant interactions”. Moreover, the “cAMP modulation in response to compound” value on DRD2L [4] was “Confirmatory results”. Moreover, the “antagonism of DRD2 short and long isoforms” value in series [5] is on record as “antagonized”. Also, in [6], the “antagonism of D2-like dopamine receptors” value is reported as “selectively antagonizes”.
`CC(C)C[C@H](NC(=O)[C@H](Cc1ccccc1)NC(=O)c1cnccn1)B(O)O` [bortezomib]: the associated adverse event entry in [7] is “peripheral neuropathy”.
For the compound `CC(=O)O[C@@]12CO[C@@H]1C[C@H](O)[C@@]1(C)C(=O)[C@H](O)C3=C(C)[C@@H](OC(=O)[C@H](O)[C@@H](NC(=O)OC(C)(C)C)c4ccccc4)C[C@@](O)([C@@H](OC(=O)c4ccccc4)[C@H]21)C3(C)C` [docetaxel], in series [7], the associated adverse event entry was “neutropenia”.
Regarding `CN(CCOc1ccc(CC2SC(=O)NC2=O)cc1)c1ccccn1` (centres unmarked) [rosiglitazone], in [7], the associated adverse event result is listed as “elevated risk of heart attack”.
